According to article PMC11576293, “New series of 4,6-diaryl pyrimidines: facile synthesis and antiproliferative activity as dual EGFR/VEGFR-2 inhibitors” (Frontiers in Chemistry, 2024):

Tests used:
Experiment in all cases: NCI-60 single-dose screen
Type in all cases: cell-based
786-0 = settings: Homo sapiens, single dose 10 µM, '-' = no inhibition, read-out: % Growth Inhibition
Outline: (§1)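 NCI Developmental Therapeutics Program screen across 60 human cancer cell lines from nine tumor types; compounds tested at a single dose of 10 μM.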

A498 = settings: Homo sapiens, single dose 10 µM, '-' = no inhibition, read-out: % Growth Inhibition
Outline: as §1

A549/ATCC = settings: Homo sapiens, single dose 10 µM, '-' = no inhibition, read-out: % Growth Inhibition
Outline: as §1

ACHN 1 = settings: Homo sapiens, single dose 10 µM, '-' = no inhibition, read-out: % Growth Inhibition
Outline: as §1

BT-549 = settings: Homo sapiens, single dose 10 µM, '-' = no inhibition, read-out: % Growth Inhibition
Outline: as §1

CAKI-1 = settings: Homo sapiens, single dose 10 µM, '-' = no inhibition, read-out: % Growth Inhibition
Outline: as §1

COLO 205 = settings: Homo sapiens, single dose 10 µM, '-' = no inhibition, read-out: % Growth Inhibition
Outline: as §1

DU-145 = settings: Homo sapiens, single dose 10 µM, '-' = no inhibition, read-out: % Growth Inhibition
Outline: as §1

EKVX = settings: Homo sapiens, single dose 10 µM, '-' = no inhibition, read-out: % Growth Inhibition
Outline: as §1

HCC-2998 = settings: Homo sapiens, single dose 10 µM, '-' = no inhibition, read-out: % Growth Inhibition
Outline: as §1

HCT-116 = settings: Homo sapiens, single dose 10 µM, '-' = no inhibition, read-out: % Growth Inhibition
Outline: as §1

HL-60(TB) = settings: Homo sapiens, single dose 10 µM, '-' = no inhibition, read-out: % Growth Inhibition
HOP-62 = settings: Homo sapiens, single dose 10 µM, '-' = no inhibition, read-out: % Growth Inhibition
Outline: as §1

HOP-92 = settings: Homo sapiens, single dose 10 µM, '-' = no inhibition, read-out: % Growth Inhibition
Outline: as §1

IGROV1 = settings: Homo sapiens, IGROV-1, single dose 10 µM, '-' = no inhibition, read-out: % Growth Inhibition
Outline: as §1

K-562 = settings: Homo sapiens, K562, single dose 10 µM, '-' = no inhibition, read-out: % Growth Inhibition
Outline: as §1

KM12 = settings: Homo sapiens, single dose 10 µM, '-' = no inhibition, read-out: % Growth Inhibition
Outline: as §1

LOX IMVI = settings: Homo sapiens, single dose 10 µM, '-' = no inhibition, read-out: % Growth Inhibition
Outline: as §1

MALME-3M = settings: Homo sapiens, single dose 10 µM, '-' = no inhibition, read-out: % Growth Inhibition
Outline: as §1

MCF7 = settings: Homo sapiens, single dose 10 µM, '-' = no inhibition, read-out: % Growth Inhibition
Outline: as §1

MDA-MB-435 = settings: Homo sapiens, single dose 10 µM, '-' = no inhibition, read-out: % Growth Inhibition
Outline: as §1

MDA-MB-468 = settings: Homo sapiens, single dose 10 µM, '-' = no inhibition, read-out: % Growth Inhibition
Outline: as §1

MDA-MB231/ATCC = settings: Homo sapiens, MDA-MB-231, single dose 10 µM, '-' = no inhibition, read-out: % Growth Inhibition
Outline: as §1

NCI-H23 = settings: Homo sapiens, single dose 10 µM, '-' = no inhibition, read-out: % Growth Inhibition
Outline: as §1

NCI-H322M = settings: Homo sapiens, single dose 10 µM, '-' = no inhibition, read-out: % Growth Inhibition
Outline: as §1

NCI-H460 = settings: Homo sapiens, single dose 10 µM, '-' = no inhibition, read-out: % Growth Inhibition
Outline: as §1

NCI-H522 = settings: Homo sapiens, single dose 10 µM, '-' = no inhibition, read-out: % Growth Inhibition
Outline: as §1

NCI/ADR-RES = settings: Homo sapiens, single dose 10 µM, '-' = no inhibition, read-out: % Growth Inhibition
Outline: as §1

OVCAR-3 = settings: Homo sapiens, single dose 10 µM, '-' = no inhibition, read-out: % Growth Inhibition
Outline: as §1

OVCAR-4 = settings: Homo sapiens, single dose 10 µM, '-' = no inhibition, read-out: % Growth Inhibition
Outline: as §1

OVCAR-5 = settings: Homo sapiens, single dose 10 µM, '-' = no inhibition, read-out: % Growth Inhibition
Outline: as §1

OVCAR-8 = settings: Homo sapiens, single dose 10 µM, '-' = no inhibition, read-out: % Growth Inhibition
Outline: as §1

PC-3 = settings: Homo sapiens, single dose 10 µM, '-' = no inhibition, read-out: % Growth Inhibition
Outline: as §1

RPMI-8226 = settings: Homo sapiens, single dose 10 µM, '-' = no inhibition, read-out: % Growth Inhibition
Outline: as §1

RXF 393 = settings: Homo sapiens, single dose 10 µM, '-' = no inhibition, read-out: % Growth Inhibition
Outline: as §1

SF-268 = settings: Homo sapiens, single dose 10 µM, '-' = no inhibition, read-out: % Growth Inhibition
Outline: as §1

SK-MEL-28 = settings: Homo sapiens, single dose 10 µM, '-' = no inhibition, read-out: % Growth Inhibition
Outline: as §1

SK-MEL-2 = settings: Homo sapiens, single dose 10 µM, '-' = no inhibition, read-out: % Growth Inhibition
Outline: as §1

SK-MEL-5 = settings: Homo sapiens, single dose 10 µM, '-' = no inhibition, read-out: % Growth Inhibition
Outline: as §1

SN12C = settings: Homo sapiens, single dose 10 µM, '-' = no inhibition, read-out: % Growth Inhibition
Outline: as §1

SNB-19 = settings: Homo sapiens, single dose 10 µM, '-' = no inhibition, read-out: % Growth Inhibition
Outline: as §1

SNB-75 = settings: Homo sapiens, single dose 10 µM, '-' = no inhibition, read-out: % Growth Inhibition
Outline: as §1

SR = settings: Homo sapiens, single dose 10 µM, '-' = no inhibition, read-out: % Growth Inhibition
Outline: as §1

TK-10 = settings: Homo sapiens, single dose 10 µM, '-' = no inhibition, read-out: % Growth Inhibition
Outline: as §1

U251 = settings: Homo sapiens, U-251, single dose 10 µM, '-' = no inhibition, read-out: % Growth Inhibition
Outline: as §1

UACC-257 = settings: Homo sapiens, single dose 10 µM, '-' = no inhibition, read-out: % Growth Inhibition
Outline: as §1

UACC-62 = settings: Homo sapiens, single dose 10 µM, '-' = no inhibition, read-out: % Growth Inhibition
Outline: as §1

UO-31 = settings: Homo sapiens, single dose 10 µM, '-' = no inhibition, read-out: % Growth Inhibition
Outline: as §1

`CCSc1nc(-c2ccc(Cl)cc2)cc(-c2ccc(OC)c(OC)c2)n1` [Compound 24, 4-(4-Chlorophenyl)-2-(ethylthio)-6-(3,4-dimethoxyphenyl)pyrimidine] gave an inhibition at 10 µM (786-0) of 11.8%, an inhibition at 10 µM (A498) of 1.95% and an inhibition at 10 µM (A549/ATCC) of 23%. For the same compound, the inhibition at 10 µM (ACHN 1) was 7.24%, the inhibition at 10 µM (BT-549) was less than 0% and the inhibition at 10 µM (CAKI-1) was 27.5%. The inhibition at 10 µM (COLO 205) was 35.4%, the inhibition at 10 µM (DU-145) was 7.4% and the inhibition at 10 µM (EKVX) was 20.4%. For the same compound, the inhibition at 10 µM (HCC-2998) was 4.44%, the inhibition at 10 µM (HCT-116) was 30% and the inhibition at 10 µM (HL-60(TB)) was 22.8%. It also gave an inhibition at 10 µM (HOP-62) of less than 0%, an inhibition at 10 µM (HOP-92) of 1.94% and an inhibition at 10 µM (IGROV1) of less than 0%. It also gave an inhibition at 10 µM (K-562) of 41.5%, an inhibition at 10 µM (KM12) of 29.8% and an inhibition at 10 µM (LOX IMVI) of 11.9%. It also gave an inhibition at 10 µM (MALME-3M) of less than 0%, an inhibition at 10 µM (MCF7) of 18.5% and an inhibition at 10 µM (MDA-MB-435) of 19.7%. It also gave an inhibition at 10 µM (MDA-MB-468) of 11.3%, an inhibition at 10 µM (MDA-MB231/ATCC) of 16.9% and an inhibition at 10 µM (NCI-H23) of 1.67%. For the same compound, the inhibition at 10 µM (NCI-H322M) was 13.8%, the inhibition at 10 µM (NCI-H460) was less than 0% and the inhibition at 10 µM (NCI-H522) was 2.36%. For the same compound, the inhibition at 10 µM (NCI/ADR-RES) was 17.5%, the inhibition at 10 µM (OVCAR-3) was less than 0% and the inhibition at 10 µM (OVCAR-4) was 26.4%. For the same compound, the inhibition at 10 µM (OVCAR-5) was 11%, the inhibition at 10 µM (OVCAR-8) was 6.83% and the inhibition at 10 µM (PC-3) was 26.4%. It also gave an inhibition at 10 µM (RPMI-8226) of 26.4%, an inhibition at 10 µM (RXF 393) of 23.5% and an inhibition at 10 µM (SF-268) of 16.9%. The inhibition at 10 µM (SK-MEL-28) was 5.5%, the inhibition at 10 µM (SK-MEL-2) was 11.9% and the inhibition at 10 µM (SK-MEL-5) was 28.9%. It also gave an inhibition at 10 µM (SN12C) of 22.8%, an inhibition at 10 µM (SNB-19) of 3.01% and an inhibition at 10 µM (SNB-75) of 6.37%. It also gave an inhibition at 10 µM (SR) of 39.6%, an inhibition at 10 µM (TK-10) of less than 0% and an inhibition at 10 µM (U251) of 14.7%. The inhibition at 10 µM (UACC-257) was 13.5%, the inhibition at 10 µM (UACC-62) was less than 0% and the inhibition at 10 µM (UO-31) was 25.8%.
